Data taken from patent US12479847B2 (DANA-FARBER CANCER INSTITUTE, INC., priority 2019, dated 2025).

What was measured:
Experiment in all cases: KINOMEscan (ScanMAX) kinase profiling
Type in all cases: binding
[1] = target: T1, panel of 468 kinases (Homo sapiens, UniProt O14730); conditions: RIOK3; 1 μM; read-out: % control
T1 construct: purchased KINOMEscan (ScanMAX) service
T1 sequence (O14730 1-519): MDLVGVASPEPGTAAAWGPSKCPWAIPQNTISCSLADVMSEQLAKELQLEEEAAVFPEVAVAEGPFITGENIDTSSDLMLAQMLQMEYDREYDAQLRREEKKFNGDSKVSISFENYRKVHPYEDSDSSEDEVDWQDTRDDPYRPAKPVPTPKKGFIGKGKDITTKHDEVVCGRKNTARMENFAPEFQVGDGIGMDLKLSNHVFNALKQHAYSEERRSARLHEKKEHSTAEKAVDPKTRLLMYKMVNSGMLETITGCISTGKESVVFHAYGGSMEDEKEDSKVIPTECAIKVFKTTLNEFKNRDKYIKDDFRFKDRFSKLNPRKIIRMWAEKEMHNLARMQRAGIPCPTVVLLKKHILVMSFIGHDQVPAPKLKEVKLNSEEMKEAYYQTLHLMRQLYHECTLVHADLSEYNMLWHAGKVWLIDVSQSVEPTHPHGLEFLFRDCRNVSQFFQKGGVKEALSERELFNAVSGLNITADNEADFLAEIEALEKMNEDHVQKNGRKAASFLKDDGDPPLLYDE

[2] = target: T2, panel of 468 kinases (Homo sapiens, UniProt O75116); conditions: ROCK2; 1 μM; read-out: % control
T2 construct: purchased KINOMEscan (ScanMAX) service

[3] = target: T3, panel of 468 kinases (Homo sapiens, UniProt O75385); conditions: ULK1; 1 μM; read-out: % control
T3 construct: purchased KINOMEscan (ScanMAX) service
T3 sequence (O75385 1-1050): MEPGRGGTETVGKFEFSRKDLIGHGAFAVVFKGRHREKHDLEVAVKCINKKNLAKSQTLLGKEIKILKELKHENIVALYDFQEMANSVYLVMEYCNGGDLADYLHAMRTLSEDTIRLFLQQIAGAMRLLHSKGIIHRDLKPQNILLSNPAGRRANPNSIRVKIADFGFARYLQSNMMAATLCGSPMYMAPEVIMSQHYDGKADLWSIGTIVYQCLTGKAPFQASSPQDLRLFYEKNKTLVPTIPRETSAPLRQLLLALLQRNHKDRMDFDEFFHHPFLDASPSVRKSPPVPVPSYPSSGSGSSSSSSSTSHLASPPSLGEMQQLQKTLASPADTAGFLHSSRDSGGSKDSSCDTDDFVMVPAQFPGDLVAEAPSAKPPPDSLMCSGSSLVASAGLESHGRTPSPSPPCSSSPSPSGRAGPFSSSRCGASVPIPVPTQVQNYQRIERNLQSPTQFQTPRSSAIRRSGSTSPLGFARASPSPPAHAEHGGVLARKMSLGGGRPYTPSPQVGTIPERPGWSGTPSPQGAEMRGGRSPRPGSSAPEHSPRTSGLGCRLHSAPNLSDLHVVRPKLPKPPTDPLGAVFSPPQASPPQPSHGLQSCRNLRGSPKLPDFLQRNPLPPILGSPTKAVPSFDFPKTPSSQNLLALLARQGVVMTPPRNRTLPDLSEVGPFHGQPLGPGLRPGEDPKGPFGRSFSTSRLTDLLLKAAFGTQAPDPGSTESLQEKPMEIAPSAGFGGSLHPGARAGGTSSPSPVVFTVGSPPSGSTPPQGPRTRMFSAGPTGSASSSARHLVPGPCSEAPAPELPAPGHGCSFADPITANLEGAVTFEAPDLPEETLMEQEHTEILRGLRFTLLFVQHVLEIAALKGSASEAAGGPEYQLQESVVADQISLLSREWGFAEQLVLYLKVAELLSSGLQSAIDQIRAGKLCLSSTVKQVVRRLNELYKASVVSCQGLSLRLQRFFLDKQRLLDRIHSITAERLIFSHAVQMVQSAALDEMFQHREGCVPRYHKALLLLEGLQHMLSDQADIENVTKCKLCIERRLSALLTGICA

[4] = target: T4, panel of 468 kinases (Homo sapiens, UniProt P00533, G719C); conditions: EGFR(G719C); 1 μM; read-out: % control
T4 construct: purchased KINOMEscan (ScanMAX) service

[5] = target: T5, panel of 468 kinases (Homo sapiens, UniProt P00533, L861Q); conditions: EGFR(L861Q); 1 μM; read-out: % control
T5 construct: purchased KINOMEscan (ScanMAX) service

[6] = target: T6, panel of 468 kinases (Homo sapiens, UniProt P06213); conditions: INSR; 1 μM; read-out: % control
T6 construct: purchased KINOMEscan (ScanMAX) service

[7] = target: T7, panel of 468 kinases (Homo sapiens, UniProt P54646); conditions: AMPK-alpha2; 1 μM; read-out: % control
T7 construct: purchased KINOMEscan (ScanMAX) service

[8] = target: T8, panel of 468 kinases (Homo sapiens, UniProt Q04912); conditions: MST1R; 1 μM; read-out: % control
T8 construct: purchased KINOMEscan (ScanMAX) service

[9] = target: T9, panel of 468 kinases (Homo sapiens, UniProt Q13555); conditions: CAMK2G; 1 μM; read-out: % control
T9 construct: purchased KINOMEscan (ScanMAX) service

[10] = target: T10, panel of 468 kinases (Homo sapiens, UniProt Q9H1R3); conditions: MYLK2; 1 μM; read-out: % control
T10 construct: purchased KINOMEscan (ScanMAX) service

[11] = target: T11, panel of 468 kinases (Homo sapiens, UniProt Q9UBF8); conditions: PIK4CB; 1 μM; read-out: % control
T11 construct: purchased KINOMEscan (ScanMAX) service

[12] = target: T12, panel of 468 kinases (Homo sapiens, UniProt Q9Y4K4); conditions: MAP4K5; 1 μM; read-out: % control
T12 construct: purchased KINOMEscan (ScanMAX) service

[13] = tested on: panel of 468 kinases; conditions: 1 μM

T11 sequence (Q9UBF8 whole entry): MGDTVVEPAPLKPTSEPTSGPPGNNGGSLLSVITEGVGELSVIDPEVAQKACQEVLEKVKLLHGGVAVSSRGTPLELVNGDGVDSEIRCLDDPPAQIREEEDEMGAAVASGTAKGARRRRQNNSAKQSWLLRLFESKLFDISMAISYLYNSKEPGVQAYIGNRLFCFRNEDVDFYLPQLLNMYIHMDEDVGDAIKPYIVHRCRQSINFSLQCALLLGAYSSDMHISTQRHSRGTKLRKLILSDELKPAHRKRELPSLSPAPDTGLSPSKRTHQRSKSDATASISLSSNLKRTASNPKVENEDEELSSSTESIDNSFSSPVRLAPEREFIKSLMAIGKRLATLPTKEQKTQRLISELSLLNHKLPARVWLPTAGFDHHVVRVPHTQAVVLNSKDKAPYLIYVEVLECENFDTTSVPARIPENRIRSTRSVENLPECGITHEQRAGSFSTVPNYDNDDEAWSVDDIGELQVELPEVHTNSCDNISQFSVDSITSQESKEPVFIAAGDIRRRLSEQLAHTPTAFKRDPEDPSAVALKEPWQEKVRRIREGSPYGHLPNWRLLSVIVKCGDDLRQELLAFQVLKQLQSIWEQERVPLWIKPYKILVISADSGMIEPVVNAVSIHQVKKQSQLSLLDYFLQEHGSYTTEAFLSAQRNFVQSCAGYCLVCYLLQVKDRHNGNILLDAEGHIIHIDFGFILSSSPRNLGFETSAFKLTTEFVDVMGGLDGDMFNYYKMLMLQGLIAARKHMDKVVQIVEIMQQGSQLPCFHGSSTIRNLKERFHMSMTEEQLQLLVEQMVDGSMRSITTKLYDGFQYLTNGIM
T7 sequence (P54646 whole entry): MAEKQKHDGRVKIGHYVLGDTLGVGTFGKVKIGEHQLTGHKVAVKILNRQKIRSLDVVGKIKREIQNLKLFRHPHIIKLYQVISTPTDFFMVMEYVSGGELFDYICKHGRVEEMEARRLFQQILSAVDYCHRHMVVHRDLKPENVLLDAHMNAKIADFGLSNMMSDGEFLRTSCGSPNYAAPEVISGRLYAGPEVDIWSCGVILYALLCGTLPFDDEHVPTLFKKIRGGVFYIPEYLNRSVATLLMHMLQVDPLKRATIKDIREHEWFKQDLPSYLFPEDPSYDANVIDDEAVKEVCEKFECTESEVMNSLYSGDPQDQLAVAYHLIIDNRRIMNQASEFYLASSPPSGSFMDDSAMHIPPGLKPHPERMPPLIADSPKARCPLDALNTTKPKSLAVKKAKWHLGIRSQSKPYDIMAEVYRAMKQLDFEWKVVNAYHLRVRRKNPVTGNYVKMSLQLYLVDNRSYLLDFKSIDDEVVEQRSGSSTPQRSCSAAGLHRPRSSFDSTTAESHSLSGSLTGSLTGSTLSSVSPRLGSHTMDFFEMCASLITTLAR
T12 sequence (Q9Y4K4 whole entry): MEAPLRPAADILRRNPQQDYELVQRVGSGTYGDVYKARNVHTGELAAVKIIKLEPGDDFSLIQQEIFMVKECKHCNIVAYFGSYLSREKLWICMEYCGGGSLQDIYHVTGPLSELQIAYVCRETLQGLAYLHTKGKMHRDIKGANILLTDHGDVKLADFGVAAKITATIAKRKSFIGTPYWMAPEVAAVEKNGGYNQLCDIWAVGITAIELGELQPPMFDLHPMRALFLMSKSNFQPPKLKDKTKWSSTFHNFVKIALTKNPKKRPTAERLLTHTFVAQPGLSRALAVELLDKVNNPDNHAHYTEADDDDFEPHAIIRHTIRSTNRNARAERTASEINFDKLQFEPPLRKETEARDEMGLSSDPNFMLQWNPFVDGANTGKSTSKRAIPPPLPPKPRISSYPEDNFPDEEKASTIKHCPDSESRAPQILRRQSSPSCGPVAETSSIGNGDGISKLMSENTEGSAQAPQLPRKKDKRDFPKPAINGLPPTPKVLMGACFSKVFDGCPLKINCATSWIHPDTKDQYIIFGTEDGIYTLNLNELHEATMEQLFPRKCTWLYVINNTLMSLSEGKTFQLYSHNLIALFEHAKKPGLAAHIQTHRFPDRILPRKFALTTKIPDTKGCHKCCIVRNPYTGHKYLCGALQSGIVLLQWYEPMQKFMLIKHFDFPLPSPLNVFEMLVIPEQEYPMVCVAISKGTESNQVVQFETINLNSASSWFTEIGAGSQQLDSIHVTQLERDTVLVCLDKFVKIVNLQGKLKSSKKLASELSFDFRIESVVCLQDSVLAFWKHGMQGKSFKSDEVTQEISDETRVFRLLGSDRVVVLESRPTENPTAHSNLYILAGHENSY
T5 sequence (P00533 25-1210 L861Q): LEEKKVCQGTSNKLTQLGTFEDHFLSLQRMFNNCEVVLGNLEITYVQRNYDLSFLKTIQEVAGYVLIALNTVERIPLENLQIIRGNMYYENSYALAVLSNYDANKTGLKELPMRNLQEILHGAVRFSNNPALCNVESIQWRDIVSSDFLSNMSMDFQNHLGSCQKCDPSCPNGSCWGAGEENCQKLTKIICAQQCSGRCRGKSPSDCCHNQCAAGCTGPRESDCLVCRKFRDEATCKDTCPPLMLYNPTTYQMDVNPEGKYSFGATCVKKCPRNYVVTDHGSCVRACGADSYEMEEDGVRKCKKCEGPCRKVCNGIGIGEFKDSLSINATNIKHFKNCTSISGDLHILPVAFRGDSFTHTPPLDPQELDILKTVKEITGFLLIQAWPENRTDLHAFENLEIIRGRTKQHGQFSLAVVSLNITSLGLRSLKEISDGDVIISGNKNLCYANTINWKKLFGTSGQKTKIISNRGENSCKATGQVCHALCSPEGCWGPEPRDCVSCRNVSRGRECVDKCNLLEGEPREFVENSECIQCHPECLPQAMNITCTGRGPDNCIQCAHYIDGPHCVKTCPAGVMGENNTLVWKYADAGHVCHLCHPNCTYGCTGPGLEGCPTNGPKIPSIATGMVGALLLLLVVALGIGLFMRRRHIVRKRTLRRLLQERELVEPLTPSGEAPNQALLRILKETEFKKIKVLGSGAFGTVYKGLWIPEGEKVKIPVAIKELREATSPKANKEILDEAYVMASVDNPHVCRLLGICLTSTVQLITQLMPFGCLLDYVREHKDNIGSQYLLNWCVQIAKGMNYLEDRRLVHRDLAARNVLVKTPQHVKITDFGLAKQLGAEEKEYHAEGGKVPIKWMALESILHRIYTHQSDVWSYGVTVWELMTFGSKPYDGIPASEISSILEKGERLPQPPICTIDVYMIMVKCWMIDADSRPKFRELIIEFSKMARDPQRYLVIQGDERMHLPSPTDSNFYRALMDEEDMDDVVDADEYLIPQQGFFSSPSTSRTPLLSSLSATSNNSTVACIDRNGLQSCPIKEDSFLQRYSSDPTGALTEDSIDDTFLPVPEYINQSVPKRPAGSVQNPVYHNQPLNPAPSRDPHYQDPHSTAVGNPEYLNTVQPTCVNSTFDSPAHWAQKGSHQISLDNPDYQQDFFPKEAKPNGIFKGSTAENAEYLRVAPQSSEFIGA
T4 sequence (P00533 25-1210 G719C): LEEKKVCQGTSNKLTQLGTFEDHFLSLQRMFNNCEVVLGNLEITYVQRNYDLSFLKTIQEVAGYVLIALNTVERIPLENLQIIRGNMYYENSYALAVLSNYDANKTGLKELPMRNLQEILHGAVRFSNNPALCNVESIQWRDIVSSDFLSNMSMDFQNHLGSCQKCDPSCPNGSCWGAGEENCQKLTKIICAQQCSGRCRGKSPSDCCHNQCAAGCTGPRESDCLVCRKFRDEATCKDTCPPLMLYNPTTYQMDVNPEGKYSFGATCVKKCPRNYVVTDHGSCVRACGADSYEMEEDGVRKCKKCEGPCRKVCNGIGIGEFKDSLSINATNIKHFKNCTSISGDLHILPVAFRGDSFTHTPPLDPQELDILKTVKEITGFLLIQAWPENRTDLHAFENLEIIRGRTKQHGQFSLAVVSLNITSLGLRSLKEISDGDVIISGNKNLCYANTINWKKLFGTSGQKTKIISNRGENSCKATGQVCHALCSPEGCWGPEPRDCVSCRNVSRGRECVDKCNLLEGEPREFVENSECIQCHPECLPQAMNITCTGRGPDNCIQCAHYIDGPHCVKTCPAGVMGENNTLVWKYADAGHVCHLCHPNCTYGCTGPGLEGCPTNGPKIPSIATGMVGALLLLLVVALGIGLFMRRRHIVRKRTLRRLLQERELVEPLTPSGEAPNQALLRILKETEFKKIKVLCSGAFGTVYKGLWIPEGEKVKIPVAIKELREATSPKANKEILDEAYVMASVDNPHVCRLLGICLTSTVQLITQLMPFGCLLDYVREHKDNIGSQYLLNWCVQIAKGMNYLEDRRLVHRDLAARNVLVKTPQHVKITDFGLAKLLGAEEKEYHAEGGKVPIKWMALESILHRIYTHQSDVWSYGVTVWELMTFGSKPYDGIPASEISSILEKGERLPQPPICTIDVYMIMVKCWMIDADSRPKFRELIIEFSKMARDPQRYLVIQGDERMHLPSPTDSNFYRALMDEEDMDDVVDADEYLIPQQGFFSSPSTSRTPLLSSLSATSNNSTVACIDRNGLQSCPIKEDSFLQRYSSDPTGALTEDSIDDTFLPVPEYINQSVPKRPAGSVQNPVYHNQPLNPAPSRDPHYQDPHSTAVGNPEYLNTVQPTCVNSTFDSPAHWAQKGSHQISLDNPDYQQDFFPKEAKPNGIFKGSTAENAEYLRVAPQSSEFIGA

Row | SMILES | remaining binding at 1 µM [1] [%] | remaining binding at 1 µM [2] [%] | remaining binding at 1 µM [3] [%] | remaining binding at 1 µM [4] [%] | remaining binding at 1 µM [5] [%] | remaining binding at 1 µM [6] [%] | remaining binding at 1 µM [7] [%] | remaining binding at 1 µM [8] [%] | remaining binding at 1 µM [9] [%] | remaining binding at 1 µM [10] [%] | remaining binding at 1 µM [11] [%] | remaining binding at 1 µM [12] [%] | % control ([13]; EGFR(L747-E749del, A750P)) [%] | % control ([13]; EGFR(L747-S752del, P753S)) [%] | % control ([13]; EGFR(L747-T751del,Sins)) [%] | % control ([13]; FLT3(ITD)) [%] | % control ([13]; FLT3(ITD,D835V)) [%] | % control ([13]; FLT3(ITD,F691L)) [%]
1 | CNc1nc(Nc2ccc(S(=O)(=O)N3CCC(N4CCOCC4)CC3)cc2OC)nc2[nH]cc(Cl)c12 [Compound 12, 5-chloro-N2-(2-methoxy-4-((4-morpholinopiperidin-1-yl)sulfonyl)phenyl)-N4-methyl-7H-pyrrolo[2,3-d]pyrimidine-2,4-diamine] | 89 | 86 | 97 | 97 | 100 | 50 | 82 | 100 | 100 | 100 | 100 | 100 | 100 | 95 | 100 | 100 | 61 | 66
2 | CNc1nc(Nc2ccc(C(=O)N3CCC(N4CCOCC4)CC3)c3c2OCO3)nc2[nH]cc(Cl)c12 [Compound 75, (7-((5-chloro-4-(methylamino)-7H-pyrrolo[2,3-d]pyrimidin-2-yl)amino)benzo[d][1,3]dioxol-4-yl)(4-morpholinopiperidin-1-yl)methanone] | 28 | 35 | 50 | 100 | 100 | 24 | 87 | 100 | 100 | 86 | 100 | 91 | 100 | 87 | 100 | 33 | 2 | 2.8
3 | CNc1nc(Nc2ccc(P3(=O)CCN(C4CCOCC4)CC3)cc2OC)nc2[nH]cc(Cl)c12 [Compound 77, 4-(4-((5-chloro-4-(methylamino)-7H-pyrrolo[2,3-d]pyrimidin-2-yl)amino)-3-methoxyphenyl)-1-(tetrahydro-2H-pyran-4-yl)-1,4-azaphosphinane 4-oxide] | 88 | 96 | 95 | 99 | 100 | 18 | 90 | 100 | 97 | 100 | 100 | 100 | 92 | 99 | 100 | 81 | 19 | 40
